Earlier results on three compounds are cited in US20250032488A1, “METHODS OF TREATMENT USING LOU064” (NOVARTIS AG, priority 2021, published 2025).

Values joined by “and” are separate entries in the source; they are usually repeats but may differ in a detail not shown here. Equal values may be shown once. Read-outs that look alike come from different tables or passages of the source.

The conditions of series [1]: higher dose treatment arms, phase IIa; cited from earlier work.
For series [2] the following is noted: human, in vivo; cited from earlier work.
For series [3] the following is noted: 75 mg b.i.d., Phase II; cited from earlier work.

With `C[C@H]1CN(C2COC2)CCN1c1ccc(Nc2cc(-c3ccnc(N4CCn5c(cc6c5CC(C)(C)C6)C4=O)c3CO)cn(C)c2=O)nc1` [fenebrutinib], in series [1], the “Subjects with transient grade 3 elevations of ALT and/or AST” value was 8.3% and 6.3%.

For `C=CC(=O)N1CCC[C@@H](n2c(=O)n(-c3ccc(Oc4ccccc4)cc3)c3c(N)nccc32)C1` [tolebrutinib], in series [2], the Dose-limiting side effect entry was “dose-limiting diarrhea”.

As for `C=CC(=O)N1CCC(CNc2ncnc(N)c2-c2ccc(Oc3ccccc3)cc2)CC1` [evobrutinib], the Dose-limiting side effect entry in series [3] is reported as “dose-limiting liver enzyme elevations”.
